The results in this text go back to PMC6431176 (Proceedings of the National Academy of Sciences of the …, 2019).

This experiment deals with T1, Stl1 (Saccharomyces cerevisiae, UniProt P39932).
T1 sequence (P39932 1-569): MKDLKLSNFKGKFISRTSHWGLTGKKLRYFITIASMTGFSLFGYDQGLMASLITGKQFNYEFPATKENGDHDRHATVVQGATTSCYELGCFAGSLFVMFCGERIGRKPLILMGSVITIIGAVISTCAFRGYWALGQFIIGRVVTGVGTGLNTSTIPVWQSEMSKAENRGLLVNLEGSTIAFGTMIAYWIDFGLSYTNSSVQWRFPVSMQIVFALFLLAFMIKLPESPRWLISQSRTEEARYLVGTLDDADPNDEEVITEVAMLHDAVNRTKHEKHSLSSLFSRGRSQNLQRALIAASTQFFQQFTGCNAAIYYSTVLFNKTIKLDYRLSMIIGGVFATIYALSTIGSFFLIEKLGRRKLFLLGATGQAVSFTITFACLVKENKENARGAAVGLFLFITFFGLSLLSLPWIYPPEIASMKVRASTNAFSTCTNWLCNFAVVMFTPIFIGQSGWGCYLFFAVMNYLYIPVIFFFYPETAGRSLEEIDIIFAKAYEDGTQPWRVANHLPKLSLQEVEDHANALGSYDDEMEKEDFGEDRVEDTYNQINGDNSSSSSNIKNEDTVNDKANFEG
Put plainly: […]-glycerol accumulation in S. cerevisiae. The class given is cell-based. As to conditions: labelled compound; 1 mM, Tris/citrate pH 5.0, 30 °C.

For `OCC(O)CO` [glycerol], the “14C-glycerol accumulation in S. cerevisiae” value was “higher uptake rate of glycerol by the Stl1 transporter compared with the HGT-1 transporter”.
